Target: T1, MAPK11 (p38 beta) (Homo sapiens, UniProt Q15759)
T1 construct: purchased Thermo Fisher Scientific (Life Technologies) SelectScreen
Assay: SelectScreen Z'LYTE
Type: biochemical
Method in brief: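 Percent values come from Thermo SelectScreen profiling of NU5455, combining activity and binding assays. CSF1R was run in Z'LYTE format at Km app ATP, and CAMK1 in Adapta format with ATP listed at 10.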

T1 sequence (Q15759 whole entry): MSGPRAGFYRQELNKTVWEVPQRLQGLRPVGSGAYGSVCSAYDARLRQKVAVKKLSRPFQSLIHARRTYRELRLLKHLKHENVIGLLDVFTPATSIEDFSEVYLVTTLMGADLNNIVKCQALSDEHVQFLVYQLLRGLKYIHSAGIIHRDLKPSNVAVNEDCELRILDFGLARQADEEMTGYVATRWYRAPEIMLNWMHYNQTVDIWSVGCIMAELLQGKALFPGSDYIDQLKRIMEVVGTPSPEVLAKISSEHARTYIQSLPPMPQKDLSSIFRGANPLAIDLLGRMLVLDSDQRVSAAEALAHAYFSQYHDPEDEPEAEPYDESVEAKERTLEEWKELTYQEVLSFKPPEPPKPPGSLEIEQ

For CN(C(=O)CN1CCOCC1)c1ccc2sc3c(-c4cccc5c(=O)cc(N6CC7CCC(C6)O7)oc45)cccc3c2c1 [NU5455], the inhibition at 1 µM was 9.5%.

From PMC6934184, “Selective DNA-PKcs inhibition extends the therapeutic index of localized radiotherapy and chemotherapy” (The Journal of Clinical Investigation, 2019)
